What was measured:
Format in all cases: cell-based
SSTR1 = biological target: T1, SSTR1 (Homo sapiens, UniProt P30872); test: cAMP functional agonist assay, CHO cells expressing SSTR1; conditions: CHO cells stably expressing SSTR1, cAMP; read-out: SSTR1 EC50
T1 construct: expressed in transfected cells
Outline: (§1)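 CHO cells stably expressing the human or rodent somatostatin receptor subtype. Agonism measured as decrease in intracellular cAMP via Gi coupling.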

SSTR4 = biological target: T2, SSTR4 (Homo sapiens, UniProt P31391); test: cAMP functional agonist assay, CHO cells expressing SSTR4; conditions: CHO cells stably expressing SSTR4, cAMP; read-out: SSTR4 EC50
T2 construct: expressed in transfected cells
T2 sequence (P31391 whole entry): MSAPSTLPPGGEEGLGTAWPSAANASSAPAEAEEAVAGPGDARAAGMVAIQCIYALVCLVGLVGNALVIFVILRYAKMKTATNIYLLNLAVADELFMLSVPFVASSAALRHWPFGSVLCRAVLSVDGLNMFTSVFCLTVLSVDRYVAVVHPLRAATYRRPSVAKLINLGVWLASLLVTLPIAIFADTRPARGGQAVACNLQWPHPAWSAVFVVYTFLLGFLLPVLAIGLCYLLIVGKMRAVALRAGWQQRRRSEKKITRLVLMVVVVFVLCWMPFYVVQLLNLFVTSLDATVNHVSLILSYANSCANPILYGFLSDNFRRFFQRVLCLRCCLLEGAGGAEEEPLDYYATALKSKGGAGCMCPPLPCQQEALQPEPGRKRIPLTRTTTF
Outline: as §1

SSTR3 = SSTR3 (UniProt P32745); test: cAMP functional agonist assay, CHO cells expressing SSTR3; conditions: CHO cells stably expressing SSTR3, cAMP
Chain of SSTR3 (P32745 whole entry): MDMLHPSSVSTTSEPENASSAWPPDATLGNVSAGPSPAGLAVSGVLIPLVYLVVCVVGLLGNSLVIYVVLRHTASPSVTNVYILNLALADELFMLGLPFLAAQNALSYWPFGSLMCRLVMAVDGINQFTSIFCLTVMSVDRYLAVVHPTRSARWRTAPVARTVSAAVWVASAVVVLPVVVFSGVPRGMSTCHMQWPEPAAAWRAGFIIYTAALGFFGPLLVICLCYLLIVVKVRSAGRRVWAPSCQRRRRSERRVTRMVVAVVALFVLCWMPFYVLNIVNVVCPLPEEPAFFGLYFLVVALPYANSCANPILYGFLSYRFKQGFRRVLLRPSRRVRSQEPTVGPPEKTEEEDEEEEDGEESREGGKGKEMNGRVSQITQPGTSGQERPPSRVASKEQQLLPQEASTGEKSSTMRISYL
Outline: (§2)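 CHO cells stably expressing a single somatostatin receptor subtype, grown to 85–100% confluence in F12-Ham's with 10% donor calf serum and hygromycin. Agonism assessed as a decrease in intracellular cAMP via Gi coupling.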

[1] = biological target: T3, human somatostatin receptor subtype 2a (Homo sapiens, UniProt P30874); test: cAMP assay for SSTR2a agonists (HTRF cAMP kit, NKH-477 stimulated); conditions: CHO cells stably expressing human SSTR2a, 1.6 μM NKH-477
T3 construct: expressed in transfected cells
T3 sequence (P30874 whole entry): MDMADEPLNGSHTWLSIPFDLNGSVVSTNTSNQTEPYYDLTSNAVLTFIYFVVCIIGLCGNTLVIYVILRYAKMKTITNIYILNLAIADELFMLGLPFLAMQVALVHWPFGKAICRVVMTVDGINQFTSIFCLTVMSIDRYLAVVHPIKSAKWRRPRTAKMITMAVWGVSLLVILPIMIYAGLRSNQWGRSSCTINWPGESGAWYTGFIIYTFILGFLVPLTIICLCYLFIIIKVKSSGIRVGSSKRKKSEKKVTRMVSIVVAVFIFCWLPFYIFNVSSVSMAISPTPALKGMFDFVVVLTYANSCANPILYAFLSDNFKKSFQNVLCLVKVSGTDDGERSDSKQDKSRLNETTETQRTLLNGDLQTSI
Procedure: Chinese hamster ovary (CHO) cells stably expressing one of the six human or rodent somatostatin receptor subtypes are grown to 85-100% confluence on standard tissue culture dishes in F12-Ham's growth media (Hyclone) with following additives: 10% donor calf serum (Hyclone), 200 U/mL penicillin (Hyclone), 200 μg/mL streptomycin (Hyclone), 20 mM HEPES (Hyclone), 200 μg/mL hygromycin Hyclone.
General overview: All SSTR subtypes are Gi coupled G-protein coupled receptors (GPCRs) that lead to decreases in intracellular cyclic AMP (cAMP) when activated by an agonist. Therefore, measurement of intracellular cAMP levels can be used to assess whether compounds of the invention are agonists of SSTR subtypes (John Kelly, Troy Stevens, W. Joseph Thompson, and Roland Seifert, Current Protocols in Pharmacology, 2005, 2.2.1-2.2). One example of an intracellular cAMP assay is described below.
Four days prior to the assay, 5000 Chinese hamster ovary (CHO) cells stably expressing the human somatostatin receptor subtype 2a are plated in each well of a 96-well tissue culture plate (Nest Biotech Cell, flat bottom with low evaporation tissue culture treated; Polystyrene; Non-Pyrogenic) in F12-Ham's media (100 μL/well) supplemented with 200 μg/mL of hygromycin. Incubate at 37 C, 5% CO2, 95% humidity for four days. The cells should reach full confluence. On the day of the assay, various dilutions of the compounds of the invention are prepared in assay buffer (HRTF cAMP kit, Cisbio) in the presence of 1.6 μM NKH-477 (a water-soluble forskolin derivative) and 50 μL of the dilutions are added to the cultured cells and incubated for 20 minutes at 37° C. […] 50 μL of lysis buffer (HRTF cAMP kit, Cisbio) is added to each well and incubated at room temperature for 30 minutes, after which 150 μL assay buffer is added to each well. In a 384-well plate (Grenier, 784-080), 10 μL of assay mixture is added to 10 μL of developing mixture, containing cAMP detection and visualization antibodies are added and the assay is allowed incubate for 1-24 hours at room temperature. The intracellular cAMP concentrations are then measured using a commercially available detection kit (for example, the cAMP HTRF kit, Cisbio). The measured intracellular cAMP concentrations are plotted vs. the concentration of the compounds of the invention and the EC50 of the compounds are calculated using standard methods.

SSTR5 = biological target: T4, SSTR5 (Homo sapiens, UniProt P35346); test: cAMP functional agonist assay, CHO cells expressing SSTR5; conditions: CHO cells stably expressing SSTR5, cAMP
T4 construct: expressed in transfected cells
T4 sequence (P35346 whole entry): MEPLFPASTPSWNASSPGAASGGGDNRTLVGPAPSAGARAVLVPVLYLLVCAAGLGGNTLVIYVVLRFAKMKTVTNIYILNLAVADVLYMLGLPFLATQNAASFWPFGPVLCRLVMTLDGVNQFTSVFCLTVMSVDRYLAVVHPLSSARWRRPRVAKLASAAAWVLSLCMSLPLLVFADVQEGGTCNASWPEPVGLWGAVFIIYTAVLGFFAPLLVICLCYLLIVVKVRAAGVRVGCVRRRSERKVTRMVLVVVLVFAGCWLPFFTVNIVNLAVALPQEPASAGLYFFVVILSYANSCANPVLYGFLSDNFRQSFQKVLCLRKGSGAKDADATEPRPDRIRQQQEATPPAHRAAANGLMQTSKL
Outline: as §2

T1 sequence (P30872 whole entry): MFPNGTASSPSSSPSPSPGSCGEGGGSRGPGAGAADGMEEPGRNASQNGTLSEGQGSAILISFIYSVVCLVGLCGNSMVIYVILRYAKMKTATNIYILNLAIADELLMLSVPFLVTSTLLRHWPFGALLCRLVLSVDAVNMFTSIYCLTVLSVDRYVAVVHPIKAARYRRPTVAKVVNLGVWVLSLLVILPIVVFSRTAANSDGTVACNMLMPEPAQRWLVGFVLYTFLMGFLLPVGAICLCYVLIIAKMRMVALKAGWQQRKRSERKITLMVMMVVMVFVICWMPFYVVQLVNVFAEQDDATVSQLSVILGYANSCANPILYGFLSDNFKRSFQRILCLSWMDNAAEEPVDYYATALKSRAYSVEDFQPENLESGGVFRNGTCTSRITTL

Row | EC50 (SSTR1) | EC50 (SSTR4) | EC50 (SSTR3) | EC50 [1] | EC50 (SSTR5) | Structure (SMILES)
1 | 100 to 10000 nM | < 100 nM | < 100 nM | < 100 nM | > 10000 nM | Cc1cc(Cl)cc(-c2cnc3ncn(-c4cc(O)cc(C(F)(F)F)c4)c(=O)c3c2CN(C)C[C@@H]2CCCN2)c1 [Compound A-48, 6-(3-chloro-5-methylphenyl)-3-[3-hydroxy-5-(trifluoromethyl)phenyl]-5-({methyl[(2S)-pyrrolidin-2-ylmethyl]amino}methyl)-3H,4H-pyrido[2,3-d]pyrimidin-4-one]
2 | 100 to 10000 nM | < 100 nM | < 100 nM | < 100 nM | 100 to 10000 nM | CC[C@H](N)CN(C)Cc1c(-c2cc(C)cc(Cl)c2)cnc2ncn(-c3cc(O)cc(C(F)(F)F)c3)c(=O)c12 [Compound A-65, 5-({[(2S)-2-aminobutyl](methyl)amino}methyl)-6-(3-chloro-5-methylphenyl)-3-[3-hydroxy-5-(trifluoromethyl)phenyl]-3H,4H-pyrido[2,3-d]pyrimidin-4-one]
3 | > 10000 nM | < 100 nM | 100 to 10000 nM | < 100 nM | > 10000 nM | CN(Cc1c(-c2cccc(CCO)c2)cnc2ncn(-c3cccc(O)c3)c(=O)c12)C[C@@H]1CCCN1 [Compound A-32, 6-[3-(2-hydroxyethyl)phenyl]-3-(3-hydroxyphenyl)-5-({methyl[(2S)-pyrrolidin-2-ylmethyl]amino}methyl)-3H,4H-pyrido[2,3-d]pyrimidin-4-one]
4 | > 10000 nM | < 100 nM | < 100 nM | < 100 nM | 100 to 10000 nM | Cc1cc(Cl)cc(-c2cnc3nc(C)n(-c4cc(O)cc(F)c4)c(=O)c3c2CN(C)C[C@@H]2CCCN2)c1 [Compound A-59, 6-(3-chloro-5-methylphenyl)-3-(3-fluoro-5-hydroxyphenyl)-2-methyl-5-({methyl[(2S)-pyrrolidin-2-ylmethyl]amino}methyl)-3H,4H-pyrido[2,3-d]pyrimidin-4-one]
5 | 100 to 10000 nM | < 100 nM | < 100 nM | < 100 nM | 100 to 10000 nM | Cc1cc(Cl)cc(-c2cnc3ncn(-c4cc(O)cc(F)c4)c(=O)c3c2CN(C)C[C@@H]2CCCCN2)c1 [Compound A-28, 6-(3-chloro-5-methylphenyl)-3-(3-fluoro-5-hydroxyphenyl)-5-({methyl[(2S)-piperidin-2-ylmethyl]amino}methyl)-3H,4H-pyrido[2,3-d]pyrimidin-4-one]
6 | 100 to 10000 nM | < 100 nM | < 100 nM | < 100 nM | 100 to 10000 nM | Cc1cc(C)cc(-c2cnc3ncn(-c4cc(O)cc(F)c4)c(=O)c3c2CN(C)C[C@@H]2CCCCN2)c1 [Compound A-27, 6-(3,5-dimethylphenyl)-3-(3-fluoro-5-hydroxyphenyl)-5-({methyl[(2S)-piperidin-2-ylmethyl]amino}methyl)-3H,4H-pyrido[2,3-d]pyrimidin-4-one]
7 | > 10000 nM | < 100 nM | 100 to 10000 nM | < 100 nM | > 10000 nM | CN(Cc1c(-c2cccc(CO)c2)cnc2ncn(-c3cccc(O)c3)c(=O)c12)C[C@@H]1CCCN1 [Compound A-34, 6-[3-(hydroxymethyl)phenyl]-3-(3-hydroxyphenyl)-5-({methyl[(2S)-pyrrolidin-2-ylmethyl]amino}methyl)-3H,4H-pyrido[2,3-d]pyrimidin-4-one]
8 | > 10000 nM | < 100 nM | < 100 nM | < 100 nM | > 10000 nM | Cc1cc(Cl)cc(-c2cnc3ncn(-c4cc(F)cc(C(N)=O)c4)c(=O)c3c2CN(C)C[C@H]2CCCN2)c1 [Compound A-51, 3-[6-(3-chloro-5-methylphenyl)-5-({methyl[(2R)-pyrrolidin-2-ylmethyl]amino}methyl)-4-oxo-3H,4H-pyrido[2,3-d]pyrimidin-3-yl]-5-fluorobenzamide]
9 | 100 to 10000 nM | < 100 nM | < 100 nM | < 100 nM | > 10000 nM | Cc1cc(Cl)cc(-c2cnc3ncn(-c4cc(O)ccc4F)c(=O)c3c2CN(C)C[C@@H]2CCCN2)c1 [Compound A-54, 6-(3-chloro-5-methylphenyl)-3-(2-fluoro-5-hydroxyphenyl)-5-({methyl[(2S)-pyrrolidin-2-ylmethyl]amino}methyl)-3H,4H-pyrido[2,3-d]pyrimidin-4-one]
10 | 100 to 10000 nM | < 100 nM | 100 to 10000 nM | < 100 nM | 100 to 10000 nM | Cc1cc(Cl)cc(-c2cnc3nc(C(C)C)n(-c4cccc(O)c4)c(=O)c3c2CN(C)C[C@@H]2CCCN2)c1 [Compound A-58, 6-(3-chloro-5-methylphenyl)-3-(3-hydroxyphenyl)-5-({methyl[(2S)-pyrrolidin-2-ylmethyl]amino}methyl)-2-(propan-2-yl)-3H,4H-pyrido[2,3-d]pyrimidin-4-one]

From patent US9957267B2, “Somatostatin modulators and uses thereof” (Crinetics Pharmaceuticals, Inc., priority 2015, dated 2018)
